Measurements published in patent publication EP0229313A2, “Compound related to antibiotic TAN-749 and their production” (priority 1985, dated 1987).
≈ marks a conversion by molar mass, not a printed value. Like-named read-outs stand apart in the source and are kept apart here.

Experiments:
[1] = test system: Staphylococcus aureus TN 2648; assay: MIC against clinically isolated Staphylococcus aureus strains (Table 5); format: cell-based; details: TN2648, strain TN 2648, resistance type Methicillin, agar dilution method, Mueller Hinton medium, inoculum 10^6CFU/mℓ, read-out: Minimal Inhibitory Concentration
[2] = test system: Staphylococcus aureus TN 2613; assay: as above; format: cell-based; details: TN2613, strain TN 2613, resistance type Methicillin, agar dilution method, Mueller Hinton medium, inoculum 10^6CFU/mℓ, read-out: Minimal Inhibitory Concentration
[3] = test system: Staphylococcus aureus TN 2688; assay: as above; format: cell-based; details: TN2688, strain TN 2688, resistance type Macrolide, agar dilution method, Mueller Hinton medium, inoculum 10^6CFU/mℓ, read-out: Minimal Inhibitory Concentration
[4] = test system: Staphylococcus aureus TN 2684; assay: as above; format: cell-based; details: TN2684, strain TN 2684, resistance type Macrolide, agar dilution method, Mueller Hinton medium, inoculum 10^6CFU/mℓ, read-out: Minimal Inhibitory Concentration
Escherichia coli T7 [5] = assay: Therapeutic effects on infectious diseases in mice (Table 6); format: in vivo; details: sc; mice infected with Escherichia coli T7; route Subcutaneous; dihydrochlorides
[6] = Acute toxicities on mice (Table 7); details: mouse, in vivo, dihydrochlorides
[7] = test system: Proteus vulgaris IFO 3988; assay: Antibacterial spectrum, MIC on agar (Table 3); format: cell-based; details: IFO3988, Bacto-Antibiotic Medium 3 + yeast extract + agar, inoculum approx. 10^6 CFU/mℓ, dihydrochlorides, read-out: Minimal Inhibitory Concentration
Description: (§1) Tables 3 and 4 show the antibacterial spectra of TAN-749A, B, C, and D (dihydrochlorides) against various microbes.

[8] = test system: Proteus morganii IFO 3168; assay: Antibacterial spectrum, MIC on agar (Table 3); format: cell-based; details: Morganella morganii, IFO3168, Bacto-Antibiotic Medium 3 + yeast extract + agar, inoculum approx. 10^6 CFU/mℓ, dihydrochlorides, read-out: Minimal Inhibitory Concentration
Description: as §1

[9] = test system: Pseudomonas aeruginosa IFO 3080; assay: Antibacterial spectrum, MIC on agar (Table 3); format: cell-based; details: Bacto-Antibiotic Medium 3 + yeast extract + agar, inoculum approx. 10^6 CFU/mℓ, dihydrochlorides
Description: as §1

[10] = test system: Escherichia coli NIHJ JC2; assay: Antibacterial spectrum, MIC on agar (Table 3); format: cell-based; details: NIHJJC2, Bacto-Antibiotic Medium 3 + yeast extract + agar, inoculum approx. 10^6 CFU/mℓ, dihydrochlorides, read-out: Minimal Inhibitory Concentration
Description: as §1

[11] = test system: Staphylococcus aureus FDA 209P; assay: Antibacterial spectrum, MIC on agar (Table 3); format: cell-based; details: Bacto-Antibiotic Medium 3 + yeast extract + agar, inoculum approx. 10^6 CFU/mℓ, dihydrochlorides
Description: as §1

[12] = test system: Klebsiella pneumoniae IFO 3317; assay: Antibacterial spectrum, MIC on agar (Table 3); format: cell-based; details: IFO3317, Bacto-Antibiotic Medium 3 + yeast extract + agar, inoculum approx. 10^6 CFU/mℓ, dihydrochlorides, read-out: Minimal Inhibitory Concentration
Description: as §1

[13] = test system: Citrobacter freundii IFO 12681; assay: Antibacterial spectrum, MIC on agar (Table 3); format: cell-based; details: Bacto-Antibiotic Medium 3 + yeast extract + agar, inoculum approx. 10^6 CFU/mℓ, dihydrochlorides
Description: as §1

Escherichia coli 0-111 = assay: Therapeutic effects on infectious diseases in mice (Table 6); format: in vivo; details: mice infected with Escherichia coli 0-111, route Subcutaneous, dihydrochlorides
[14] = test system: Staphylococcus aureus 1840-2; assay: MIC against clinically isolated Staphylococcus aureus strains (Table 5); format: cell-based; details: 18402, strain 1840-2, resistance type Penicillin G, agar dilution method, Mueller Hinton medium, inoculum 10^6CFU/mℓ, read-out: Minimal Inhibitory Concentration
[15] = test system: Staphylococcus aureus 1840 S; assay: as above; format: cell-based; details: strain 1840 S, resistance type None, agar dilution method, Mueller Hinton medium, inoculum 10^6CFU/mℓ, read-out: Minimal Inhibitory Concentration
[16] = test system: Pseudomonas aeruginosa P9; assay: Antibacterial spectrum, MIC by agar dilution method (Table 4); format: cell-based; details: medium B-TSA (10% horse serum/TSA), inoculum 10^8 CFU/mℓ, dihydrochlorides, read-out: Minimal Inhibitory Concentration
Description: as §1

Escherichia coli T7 [17] = assay: as above; format: cell-based; details: inoculum 10^8 CFU/mℓ, dihydrochlorides
Description: as §1

[18] = test system: Staphylococcus aureus TN 2687; assay: MIC against clinically isolated Staphylococcus aureus strains (Table 5); format: cell-based; details: TN2687, strain TN 2687, resistance type Macrolide, agar dilution method, Mueller Hinton medium, inoculum 10^6CFU/mℓ, read-out: Minimal Inhibitory Concentration
[19] = test system: Pseudomonas aeruginosa P-9; assay: Therapeutic effects on infectious diseases in mice (Table 6); format: in vivo; details: P9, sc; mice infected with Pseudomonas aeruginosa P-9; route Subcutaneous; dihydrochlorides
[20] = test system: Staphylococcus aureus 308A-1; assay: as above; format: in vivo; details: 308A1, po, mice infected with Staphylococcus aureus 308A-1, dihydrochlorides
[21] = test system: Acinetobacter calcoaceticus IFO 13006; assay: Antibacterial spectrum, MIC on agar (Table 3); format: cell-based; details: Bacto-Antibiotic Medium 3 + yeast extract + agar, inoculum approx. 10^6 CFU/mℓ, dihydrochlorides, listed as C
Description: as §1

[22] = test system: Staphylococcus aureus 308A-1; assay: Antibacterial spectrum, MIC by agar dilution method (Table 4); format: cell-based; details: medium TSA, inoculum 10^8 CFU/mℓ, dihydrochlorides, listed as C
Description: as §1

[23] = test system: Streptococcus pyogenes E-14; assay: as above; format: cell-based; details: medium B-TSA (10% horse serum/TSA), inoculum 10^8 CFU/mℓ, dihydrochlorides, listed as C
Description: as §1

[24] = test system: Staphylococcus aureus FDA209P; assay: as above; format: cell-based; details: medium B-TSA (10% horse serum/TSA), inoculum 10^8 CFU/mℓ, dihydrochlorides, listed as C
Description: as §1

With `CC=CC=CC(=O)NCC(O)CC(N)CC(=O)NCCC(=N)N` (stereo not shown) [TAN-749A] the MIC [1] was 3.13 µg/mL (≈ 9.62 µM), the MIC [2] was 6.25 µg/mL (≈ 19.2 µM) and the MIC [3] was 6.25 µg/mL (≈ 19.2 µM). The MIC [4] was 6.25 µg/mL (≈ 19.2 µM), the ED50 (Escherichia coli T7 [5]) was 50.8 mg/kg and the LD50 ([6]; route Oral) was 2000 to 4000 mg/kg. For the same compound, the LD50 ([6]; sc, route Subcutaneous) was ~500 mg/kg, the MIC [7] was 100 µg/mL and the MIC [8] was > 100 µg/mL. For the same compound, the MIC ([9]; Pseudomonas aeruginosa, IFO3080, Pseudomonas aeruginosa IFO 3080, read-out: Minimal Inhibitory Concentration) was 25 µg/mL, the MIC [10] was > 100 µg/mL and the MIC ([11]; Staphylococcus aureus, FDA209P, read-out: Minimal Inhibitory Concentration) was 50 µg/mL. For the same compound, the MIC [12] was > 100 µg/mL, the MIC ([13]; Citrobacter freundii, IFO12681, Citrobacter freundii IFO 12681, read-out: Minimal Inhibitory Concentration) was ≥ 100 µg/mL and the ED50 (Escherichia coli 0-111; Escherichia coli, 0111, sc, read-out: ED50) was 67.2 mg/kg. It also gave an MIC [14] of 12.5 µg/mL (≈ 38.4 µM), an MIC [15] of 12.5 µg/mL (≈ 38.4 µM) and an MIC [16] of 100 µg/mL (≈ 307 µM). The MIC (Escherichia coli T7 [17]; Escherichia coli, T7, Escherichia coli T7, medium TSA, read-out: Minimal Inhibitory Concentration) was 50 µg/mL (≈ 154 µM), the MIC [18] was 6.25 µg/mL (≈ 19.2 µM) and the ED50 [19] was 31 mg/kg. The ED50 [20] was 17.7 mg/kg.
In the case of `CC=CC=CC(=O)NCC(O)CC(N)CC(=O)NCCC(=N)N` (stereo not shown) [TAN-749C], the “Minimal Inhibitory Concentration” value ([9]; Pseudomonas aeruginosa IFO 3080, listed as C) is reported as 50 µg/mL, the “Minimal Inhibitory Concentration” value ([11]; listed as C) is reported as >100 µg/mL and the “Minimal Inhibitory Concentration” value [21] is reported as >100 µg/mL. For the same compound, the “Minimal Inhibitory Concentration” value ([13]; Citrobacter freundii IFO 12681, listed as C) was >100 µg/mL, the ED50 (Escherichia coli 0-111; listed as C) was 50 mg/kg and the “Minimal Inhibitory Concentration” value [22] was >100 µg/mL. The “Minimal Inhibitory Concentration” value [23] was 100 µg/mL, the “Minimal Inhibitory Concentration” value (Escherichia coli T7 [17]; Escherichia coli T7, medium TSA, listed as C) was >100 µg/mL and the “Minimal Inhibitory Concentration” value [24] was >100 µg/mL.
